Test results published in US20230002344A1, “NOVEL BENZOTHIOPHENE DERIVATIVES AND USE THEREOF FOR STIMULATING MITOCHONDRIAL TURNOVER” (NIBN, The National Institute For Biotechnology In The Negev …, priority 2019, published 2023).

Legend:
INS1 cells [1] = experiment: Mitotracker Green pulse-chase (mitochondrial clearance); type: cell-based; settings: 25 uM, 18 h after MTG pulse
Experimental: FIGS. 8A-E show the effect of two hit compounds on mitophagy confirmed by other methods. […] Cells were imaged using a 63× Plan Neofluar objective and the Airyscan module of a Zeiss LSM880 confocal microscope. […] Data are normalized by DMSO. […] After 18 h, cells were imaged. As control, cells were loaded with MTG 30 min prior imaging—time “0” (100% MTG staining). Cells were imaged using a 40× lens of a Perkin Elmer Operetta high-content imaging system microscope (FIG. 8D). […] Each experiment was repeated three times. For mCherry-GFP-FIS1101-152 assay, 59-85 cells of each group were analyzed in each experiment and for MTG pulse-chase assay, 45 fields were analyzed in each experiment. Values of *p<0.05 vs. DMSO, #p<0.05 vs. “time 0”.
Mitotracker Green Fluorescence, Anion Radical Superoxide and Mitochondrial Membrane Potential. […] Results are expressed as the percentage of MTG fluorescence relative to MTG fluorescence of the “time 0” control. […] Integrated fluorescence of each field was analyzed in Image J after background subtraction and threshold (IsoData) application. Twenty-four fields of each condition were analyzed in each experiment.
A second fluorescence technique, Mitotracker Green (MTG) “pulse-and-chase” (FIG. 8 C-E), was utilized to confirm faster mitochondrial clearance upon treatment with SPB08007 and MWP00839. […]

INS1 cells [2] = system: INS1 cells
Experimental: Cellular oxygen consumption. An hour before oxygen consumption measurements, cell media was replaced by assay media (2 mM glucose, 0.8 mM Mg 2+, 1.8 mM Ca 2+, 143 mM NaCl, 5.4 mM KCl, 0.91 mM, NaH 2 PO 4 , and 15 mg/mL Phenol red) for 120 min at 37° C. (no CO2) before loading into the Seahorse Bioscience XF24 extracellular analyzer. The ports of the cartridge containing the oxygen probes were loaded with the compounds to be injected during the assay (50 μL/port) and the cartridge was calibrated.
Basal respiration was recorded for 30 min, at approximately 5 min intervals until system stabilization. Glucose was injected at a final concentration of 12 mM and glucose stimulated respiration was recorded for approximately 15 min. FCCP (Carbonyl cyanide-4-phenylhydrazone) was used at final concentration of 4 μM and injected with sodium pyruvate (Sigma) at a final concentration of 5 mM. Oligomycin and antimycin were used at final concentrations of 2 and 4 μM, respectively. All respiratory modulators were used at ideal concentrations titrated during preliminary experiments (not shown) and oxygen consumption rates were recorded for up to 15 min due the toxicity of these compounds. […] All the OCR values were subtracted from the lowest antimycin OCR.

INS1 cells [3] = experiment: Mitochondrial mass by Mitotracker green staining; type: cell-based; settings: 18 h; SPB08007 25 μM, MWP00839 11.5 μM, Urolithin A 25 μM
Experimental: (§1) The Z-score depicts the standard deviation from the neutral control (DMSO). In FIG. 3C: Mitochondrial mass in INS1 cells treated for 18 hours with either DMSO (control), Urolithin A (25 μM), SPB08007 (“SBP”) (25 μM) or MWP00839 (“MWP”) (11.5 μM) and then stained with Mitotracker green (200 nM). In FIG. 3D: SPB08007 and MWP00839 increase the number of mitochondria inside autolysosomes. INS1 cells expressing mCherry-GFP were exposed to SPB08007, MWP00839, and DMSO for 8 hours and then subjected to confocal microscopy. The area of red fluorescence in the taken images was determined. N=3+/−SEM pANOVA<0.05. FIG. 3E provides representative images. […] FIG. 3F provides the Western blot against LC3 in INS1 cells treated with the compounds in presence or absence of bafilomycin (+b) for the last 2 hours.
Mitotracker Green Fluorescence, Anion Radical Superoxide and Mitochondrial Membrane Potential. INS1 cells were seeded into wells of a 96-wells glass bottom cell culture plate (CELLSTAR) at a density of 2*10^4 cells/well. To assess mitochondrial clearance, a pulse-chase experiment was performed. […] Results are expressed as the percentage of MTG fluorescence relative to MTG fluorescence of the “time 0” control. […] Integrated fluorescence of each field was analyzed in Image J after background subtraction and threshold (IsoData) application. Twenty-four fields of each condition were analyzed in each experiment.

INS1 cells [4] = experiment: Western blot against LC3 (autophagic flux); type: cell-based
Experimental: as §1

**Q.** For CC(=O)N/C(=C\c1sc2ccccc2c1C)C(=O)O [SPB08007], which “MTG intensity after pulse-chase” value (INS1 cells [1]) is on record?
**A.** The value was “lower MTG intensity compared to DMSO”.

**Q.** What about the OCR under oligomycin (INS1 cells [2]; 25 μM, 18 hours exposure) of the same compound?
**A.** Its OCR under oligomycin is “decreased as well”.

**Q.** What about the “basal oxygen consumption rate (OCR)” value (INS1 cells [2]; 25 μM, 18 hours exposure) of the same compound?
**A.** Its value is “decreased”.

**Q.** And the “maximal OCR (under FCCP induction)” value (INS1 cells [2]; 25 μM, 18 hours exposure)?
**A.** Its value is “decreased”.

**Q.** What about the ATP-linked oxygen consumption (INS1 cells [2]; 25 uM, 48 h) of the same compound?
**A.** The ATP-linked oxygen consumption was “higher”.

**Q.** And the “glucose-stimulated mtOCR” value (INS1 cells [2]; 25 uM, 48 h)?
**A.** Its value is “increased”.

**Q.** What about the “mitochondrial coupling (oligomycin-sensitive respiration)” value (INS1 cells [2]; 25 uM, 48 h) of the same compound?
**A.** The value was “conserving”.

**Q.** What about the “spare respiratory capacity relative to basal respiration” value (INS1 cells [2]; 25 uM, 48 h) of the same compound?
**A.** Its value is “unchanged”.

**Q.** And the “basal mitochondrial oxygen consumption rate (mtOCR)” value (INS1 cells [2]; 25 uM, 48 h, 2 mM glucose)?
**A.** The value was “increased”.

**Q.** And the “maximum mtOCR” value (INS1 cells [2]; 25 uM, 48 h, after FCCP)?
**A.** The value was “increased”.

**Q.** And the “mitochondrial mass (mitotracker green fluorescence)” value (INS1 cells [3])?
**A.** The value was “reduction in fluorescence”.

**Q.** And the “autophagy (LC3II, with or without bafilomycin)” value (INS1 cells [4])?
**A.** Its value is “increase in autophagy”.
